From ChEMBL document CHEMBL3808329, “Increase of rutin antioxidant activity by generating Maillard reaction products with lysine” (Bioorg Med Chem Lett, 2016)
Active and inactive are the calls of the source. The rule behind the calls is not given here.

Key:
[1] = Metal chelating activity assessed as Cu2+ reducing activity at 120 degC after 4 hrs in presence of lysine; assay type: physicochemical
[2] = Antioxidant activity assessed as DPPH scavenging activity at 20 to 100 ug/ml and 120 degC after 4 hrs by spectrophotometric method; assay type: physicochemical
[3] = Antioxidant activity assessed as DPPH scavenging activity at 20 to 100 ug/ml after 4 hrs in presence of lysine by spectrophotometric method; assay type: physicochemical
HepG2 [4] = assay: Antioxidant activity in human HepG2 cells assessed as reduction in Cu2+ induced oxidative stress at 50 to 200 ug/ml preincubated for 30 mins at 120 degC using DCFH-DA in presence of lysine by fluorescence assay; assay type: functional, cell-based
[5] = Drug metabolism assessed as increase in total phenolics at 120 degC after 4 hrs in presence of lysine by Folin-Ciocalteu method; assay type: physicochemical
[6] = Antioxidant activity assessed as DPPH scavenging activity at 60 ug/ml and 120 degC after 4 hrs by spectrophotometric method; assay type: physicochemical
[7] = Retention time of compound by HPLC method; assay type: physicochemical
HepG2 [8] = assay: Induction of Cu/Zn SOD gene expression in human HepG2 cells at 100 to 300 ug/ml at 120 degC after 4 hrs in presence of lysine by western blot analysis; assay type: functional, cell-based
[9] = Antioxidant activity assessed as DPPH scavenging activity at 60 to 100 ug/ml and 120 degC after 4 hrs in presence of lysine by spectrophotometric method; assay type: physicochemical
HepG2 [10] = assay: Antioxidant activity in human HepG2 cells assessed as increase in Cu/Zn SOD activity at 200 ug/ml in presence of lysine at 120 degC after 4 hrs relative to control; assay type: functional, cell-based
HepG2 [11] = assay: Antioxidant activity in human HepG2 cells assessed as increase in Cu/Zn SOD activity at 200 ug/ml at 120 degC after 4 hrs relative to control; assay type: functional, cell-based
HepG2 [12] = assay: Antioxidant activity in human HepG2 cells assessed as reduction in Cu2+ induced oxidative stress at 50 to 200 ug/ml preincubated for 30 mins in presence of lysine using DCFH-DA by fluorescence assay; assay type: functional, cell-based
HepG2 [13] = assay: Antioxidant activity in human HepG2 cells assessed as reduction in Cu2+ induced oxidative stress at 50 to 200 ug/ml preincubated for 30 mins using DCFH-DA by fluorescence assay; assay type: functional, cell-based

Row | Compound | Activity [1] | Activity [2] | Activity [3] | Drug metabolism [5] | Activity [6] | Activity [9] | Activity (HepG2 [4]) | Retention_time [7] | Activity (HepG2 [8]) | Activity (HepG2 [10]) | Activity (HepG2 [11]) | inhibition (HepG2 [12]) | inhibition (HepG2 [13])
1 | O=C1O[C@H]([C@@H](O)CO)C(O)=C1O [ASCORBIC ACID] |  |  |  |  | 90.6% |  |  |  |  |  |  |  | 
2 | NCCCC[C@H](N)C(=O)O [LYSINE] |  |  |  |  |  |  |  | 2.01 min |  |  |  |  | 
3 | C[C@@H]1O[C@@H](OC[C@H]2O[C@@H](Oc3c(-c4ccc(O)c(O)c4)oc4cc(O)cc(O)c4c3=O)[C@H](O)[C@@H](O)[C@@H]2O)[C@H](O)[C@H](O)[C@H]1O [RUTIN] | Active |  | Dose-dependent effect | metabolite_detected |  | Active | Active | 8.94 min | Active | Active | Active | inactive | inactive

Now from value to molecule, other results behind:

Row | Activity [1] | Activity [2] | Activity [3] | Drug metabolism [5] | Activity [6] | Activity [9] | Compound | Activity (HepG2 [4]) | Retention_time [7] | Activity (HepG2 [8]) | Activity (HepG2 [10]) | Activity (HepG2 [11]) | inhibition (HepG2 [12]) | inhibition (HepG2 [13])
4 | Active | Active | Active | metabolite_detected |  |  | C[C@@H]1O[C@@H](N[C@@H](CCCCN)C(=O)O)[C@H](O)[C@H](O)[C@H]1O | Active |  |  |  |  |  | 
5 | Active | Active | Active | metabolite_detected |  |  | NCCCC[C@H](N[C@@H]1O[C@H](CO)[C@@H](O)[C@H](O)[C@H]1O)C(=O)O | Active |  |  |  |  |  | 
